Reference: patent US9556222B2, “A-ring epoxidized triterpenoid-based anti-inflammation modulators and methods of use thereof” (priority 2012, dated 2017)

Each compound was assayed on IFNγ-induced NO production in RAW264.7 mouse macrophages (assay: Suppression of IFNγ-induced NO production in RAW264.7 (Griess, normalized to WST-1 viability)). Conditions: RAW264.7, 2 h pre-treatment (0-200 nM dose range), IFNγ 24 h, normalized to cell viability.
Format: cell-based
Protocol: On the next day, cells were pre-treated with DMSO or drug (0-200 nM dose range) for 2 hours, and then treated with recombinant mouse IFNγ (R&D Systems) for 24 hours. Nitric Oxide concentration in media was determined using the Griess reagent system (Promega). Cell viability was determined using WST-1 reagent (Roche). IC50 values were determined based on the suppression of IFNγ induced Nitric Oxide production normalized to cell viability.
`COC(=O)[C@]12CCC(C)(C)C[C@H]1[C@H]1C(=O)C=C3[C@]4(C)[C@@H](CC[C@@]3(C)[C@]1(C)CC2)C(C)(C)C(=O)[C@]1(C(N)=O)O[C@@H]14` [TX63315] was tested, and the IC50 was greater than 200 nM.
`CC1(C)CC[C@]2(C(=O)O)CC[C@]3(C)[C@H](C(=O)C=C4[C@@]5(C)[C@H]6O[C@@]6(C#N)C(=O)C(C)(C)[C@@H]5CC[C@]43C)[C@@H]2C1` [TX63160] was tested, and the IC50 was 30 nM.
In the case of `CC1(C)CC[C@]2(C(=O)NCC(F)(F)F)CC[C@]3(C)[C@H](C(=O)C[C@@H]4[C@@]5(C)[C@H]6O[C@@]6(C#N)C(=O)C(C)(C)[C@@H]5CC[C@]43C)[C@@H]2C1` [TX63241], the IC50 is reported as greater than 200 nM.
`CCNC(=O)[C@]12CCC(C)(C)C[C@H]1[C@H]1C(=O)C=C3[C@@]4(C)[C@H]5O[C@@]5(C#N)C(=O)C(C)(C)[C@@H]4CC[C@@]3(C)[C@]1(C)CC2` [TX63100] showed an IC50 of 23 nM.
`CC[C@]12CCC(C)(C)C[C@H]1[C@H]1C(=O)C=C3[C@@]4(C)[C@H]5O[C@@]5(C#N)C(=O)C(C)(C)[C@@H]4CC[C@@]3(C)[C@]1(C)CC2` [TX63539] was tested, and the IC50 was 14 nM.
Work on `COC(=O)[C@]12CCC(C)(C)C[C@H]1[C@H]1C(=O)C[C@@H]3[C@@]4(C)[C@H]5O[C@@]5(C#N)C(=O)[C@@H](C)[C@@H]4CC[C@@]3(C)[C@]1(C)CC2` [TX63813] yielded an IC50 of 6.6 nM.
`CCNC(=O)[C@]12CCC(C)(C)C[C@H]1[C@H]1C(=O)C=C3[C@@]4(C)[C@H]5O[C@@]5(C#N)C(=O)[C@@H](C)[C@@H]4CC[C@@]3(C)[C@]1(C)CC2` [TX63962] was tested, and the IC50 was 1.1 nM.
In the case of `C[C@@H]1C(=O)[C@]2(C#N)O[C@@H]2[C@]2(C)C3=CC(=O)[C@@H]4[C@@H]5CC(C)(C)CC[C@]5(NC(=O)C(C)(F)F)CC[C@@]4(C)[C@]3(C)CC[C@@H]12` [TX63946], the IC50 is reported as 0.6 nM.
`COC(=O)[C@]12CCC(C)(C)C[C@H]1[C@H]1C(=O)C=C3[C@@]4(C)[C@H]5O[C@@]5(C#N)C(=O)C(C)(C)[C@@H]4CC[C@@]3(C)[C@]1(C)CC2` [TX63098] was tested, and the IC50 was 2.3 nM.
For `CC1(C)CC[C@]2(C#N)CC[C@]3(C)[C@H](C(=O)C[C@@H]4[C@@]5(C)[C@H]6O[C@@]6(C#N)C(=O)C(C)(C)[C@@H]5CC[C@]43C)[C@@H]2C1` [TX63967], the IC50 was 24 nM.
With `CC1(C)CC[C@]2(C(=O)NCC(F)(F)F)CC[C@]3(C)[C@H](C(=O)C=C4[C@@]5(C)[C@H]6O[C@@]6(C#N)C(=O)C(C)(C)[C@@H]5CC[C@]43C)[C@@H]2C1` [TX63158] the IC50 was 16 nM.
Work on `COC(=O)N[C@]12CCC(C)(C)C[C@H]1[C@H]1C(=O)C=C3[C@@]4(C)[C@H]5O[C@@]5(C#N)C(=O)C(C)(C)[C@@H]4CC[C@@]3(C)[C@]1(C)CC2` [TX63654] yielded an IC50 of 6.5 nM.
Compound `CC1(C)CC[C@]2(CO)CC[C@]3(C)[C@H](C(=O)C[C@@H]4[C@@]5(C)[C@H]6O[C@@]6(C#N)C(=O)C(C)(C)[C@@H]5CC[C@]43C)[C@@H]2C1` [TX63966] has an IC50 of 52 nM.
`COC(=O)[C@]12CCC(C)(C)C[C@H]1[C@H]1C(=O)C=C3[C@@]4(C)[C@H]5O[C@H]5C(=O)C(C)(C)[C@@H]4CC[C@@]3(C)[C@]1(C)CC2` [TX63211] showed an IC50 greater than 200 nM.
`Cc1nnc([C@]23CCC(C)(C)C[C@H]2[C@H]2C(=O)C=C4[C@@]5(C)[C@H]6O[C@@]6(C#N)C(=O)C(C)(C)[C@@H]5CC[C@@]4(C)[C@]2(C)CC3)o1` [TX63947] showed an IC50 of 2.5 nM.
`COC(=O)[C@]12CCC(C)(C)C[C@H]1[C@H]1C(=O)C=C3[C@@]4(C)[C@H]5O[C@@]5(Br)C(=O)C(C)(C)[C@@H]4CC[C@@]3(C)[C@]1(C)CC2` [TX63392] was tested, and the IC50 was greater than 200 nM.
`CC1(C)CC[C@]2(CO)CC[C@]3(C)[C@H](C(=O)C=C4[C@@]5(C)[C@H]6O[C@@]6(C#N)C(=O)C(C)(C)[C@@H]5CC[C@]43C)[C@@H]2C1` [TX63537] showed an IC50 of 1.5 nM.
In the case of `COC(=O)[C@]12CCC(C)(C)C[C@H]1[C@H]1C(=O)C[C@@H]3[C@@]4(C)[C@H]5O[C@@]5(C#N)C(=O)C(C)(C)[C@@H]4CC[C@@]3(C)[C@]1(C)CC2` [TX63210], the IC50 is reported as 44 nM.
Compound `CC1(C)CC[C@]2(C(=O)n3ccnc3)CC[C@]3(C)[C@H](C(=O)C=C4[C@@]5(C)[C@H]6O[C@@]6(C#N)C(=O)C(C)(C)[C@@H]5CC[C@]43C)[C@@H]2C1` [TX63960] has an IC50 of 2.9 nM.
Compound `CC1(C)CC[C@]2(NC(=O)C(C)(F)F)CC[C@]3(C)[C@H](C(=O)C=C4[C@@]5(C)[C@H]6O[C@@]6(C#N)C(=O)C(C)(C)[C@@H]5CC[C@]43C)[C@@H]2C1` [TX63647] has an IC50 of 15 nM.
`COC(=O)[C@]12CCC(C)(C)C[C@H]1[C@H]1C(=O)C=C3[C@]4(C)[C@@H](CC[C@@]3(C)[C@]1(C)CC2)C(C)(C)C(=O)[C@@]1(C#N)O[C@@H]41` [TX63212] was tested, and the IC50 was 1.6 nM.
In the case of `CN(C)C(=O)N[C@]12CCC(C)(C)C[C@H]1[C@H]1C(=O)C=C3[C@@]4(C)[C@H]5O[C@@]5(C#N)C(=O)C(C)(C)[C@@H]4CC[C@@]3(C)[C@]1(C)CC2` [TX63924], the IC50 is reported as 45 nM.

The compounds below were run on IFNγ-induced NO production in RAW264.7 mouse macrophages (assay: Nitric oxide production and cell viability protocol used for TX64343 (RAW264.7, Griess, Cell Titer-Glo)). Conditions: slightly different assay procedure: DMEM+10% FBS, 0-30 μM or 0-3 μM dose range, IFNγ 24 h.
Format: cell-based
Protocol: On the next day, cells were pre-treated with DMSO or drug (0-30 μM or 0-3 μM dose range) for 2 hours, and then treated with IFNγ for 24 hours. Nitric Oxide concentration in media was determined using the Griess reagent system (Promega). Cell viability was determined using Cell Titer-Glo (Promega). IC50 values were determined based on the suppression of IFNγ induced Nitric Oxide production.
Work on `CNC(=O)CC[C@]12CCC(C)(C)C[C@H]1[C@H]1C(=O)C=C3[C@@]4(C)[C@H]5O[C@@]5(C#N)C(=O)C(C)(C)[C@@H]4CC[C@@]3(C)[C@]1(C)CC2` [TX64343] yielded an IC50 of 20.1 nM.
